System: MV-4-11 cells
Test: Gene expression microarray analysis (Affymetrix PrimeView) and GSEA
Assay type: cell-based, human
Design: RFU PODN (11730768_x_at) / Fold change /veh PODN (11730768_x_at) / RFU LINC00158 (11744669_a_at) / Fold change /veh LINC00158 (11744669_a_at) / RFU DUSP10 (11751237_a_at) / Fold change /veh DUSP10 (11751237_a_at) / RFU ID3 (11757404_x_at) / Fold change /veh ID3 (11757404_x_at) / RFU PLEKHG5 (11737974_s_at) / Fold change /veh PLEKHG5 (11737974_s_at) / RFU LRRC4B (11730491_at) / Fold change /veh LRRC4B (11730491_at) / RFU GIMAP4 (11747438_a_at) / Fold change /veh GIMAP4 (11747438_a_at) / RFU KRT8 (11758183_x_at) / Fold change /veh KRT8 (11758183_x_at) / RFU CNN1 (11734310_a_at) / Fold change /veh CNN1 (11734310_a_at) / RFU VPS37D (11726825_at) / Fold change /veh VPS37D (11726825_at) / RFU C10orf10 (11716522_x_at) / Fold change /veh C10orf10 (11716522_x_at) / RFU KIR2DL2 /// KIR2DL4 /// KIR2DL5A /// KIR2DL5B /// KIR2DS1 /// KIR2DS2 /// KIR2DS3 /// KIR2DS4 /// KIR3DL3 /// KIR3DL3 /// KIR3DS1 (11738374_at) / Fold change /veh KIR2DL2 /// KIR2DL4 /// KIR2DL5A /// KIR2DL5B /// KIR2DS1 /// KIR2DS2 /// KIR2DS3 /// KIR2DS4 /// KIR3DL3 /// KIR3DL3 /// KIR3DS1 (11738374_at) / RFU C1QL1 (11718748_at) / Fold change /veh C1QL1 (11718748_at) / RFU TMPRSS4 (11747572_a_at) / Fold change /veh TMPRSS4 (11747572_a_at) / RFU HAMP (11756126_x_at) / Fold change /veh HAMP (11756126_x_at) / RFU RNFT2 (11725882_a_at) / Fold change /veh RNFT2 (11725882_a_at) / RFU NR4A2 (11747474_a_at) / Fold change /veh NR4A2 (11747474_a_at) / RFU ABCC12 (11746883_a_at) / Fold change /veh ABCC12 (11746883_a_at) / RFU TMEM136 (11760407_x_at) / Fold change /veh TMEM136 (11760407_x_at) / RFU CLDN22 /// WWC2 (11732394_at) / Fold change /veh CLDN22 /// WWC2 (11732394_at) / RFU HLA-DPB1 (11760878_x_at) / Fold change /veh HLA-DPB1 (11760878_x_at) / RFU SPINT1 (11716480_a_at) / Fold change /veh SPINT1 (11716480_a_at) / RFU GAP43 (11754022_s_at) / Fold change /veh GAP43 (11754022_s_at) / RFU A4GNT (11735810_at) / Fold change /veh A4GNT (11735810_at) / RFU PRB3 (11715151_x_at) / Fold change /veh PRB3 (11715151_x_at) / RFU TUBB4B (11761932_at) / Fold change /veh TUBB4B (11761932_at) / RFU CAPN14 (11732068_a_at) / Fold change /veh CAPN14 (11732068_a_at) / RFU TMCC2 (11721928_a_at) / Fold change /veh TMCC2 (11721928_a_at) / RFU IRGQ (11745062_a_at) / Fold change /veh IRGQ (11745062_a_at) / RFU FAM174B (11720279_a_at) / Fold change /veh FAM174B (11720279_a_at) / RFU TMPRSS4 (11748680_a_at) / Fold change /veh TMPRSS4 (11748680_a_at) / RFU FAM212B (11763350_a_at) / Fold change /veh FAM212B (11763350_a_at) / RFU PLEKHG5 (11743358_a_at) / Fold change /veh PLEKHG5 (11743358_a_at) / RFU ZSCAN30 (11745921_a_at) / Fold change /veh ZSCAN30 (11745921_a_at) / RFU CMKLR1 (11741424_a_at) / Fold change /veh CMKLR1 (11741424_a_at) / RFU LOC101060620 /// MAPK8IP1 (11723275_at) / Fold change /veh LOC101060620 /// MAPK8IP1 (11723275_at) / RFU SPTSSB (11747773_x_at) / Fold change /veh SPTSSB (11747773_x_at) / RFU PRSS12 (11739890_at) / Fold change /veh PRSS12 (11739890_at) / RFU BIN1 (11741810_x_at) / Fold change /veh BIN1 (11741810_x_at) / RFU WNT11 (11732464_a_at) / Fold change /veh WNT11 (11732464_a_at) / RFU C10orf10 (11716521_a_at) / Fold change /veh C10orf10 (11716521_a_at) / RFU C5orf56 (11738089_at) / Fold change /veh C5orf56 (11738089_at) / RFU CYB561 (11721691_x_at) / Fold change /veh CYB561 (11721691_x_at) / RFU ANKRD19P (11752326_a_at) / Fold change /veh ANKRD19P (11752326_a_at) / RFU OR2T12 /// OR2T33 /// OR2T8 (11738714_s_at) / Fold change /veh OR2T12 /// OR2T33 /// OR2T8 (11738714_s_at) / RFU VCAN (11748164_a_at) / Fold change /veh VCAN (11748164_a_at) / RFU JSRP1 (11732532_at) / Fold change /veh JSRP1 (11732532_at) / RFU KRTAP10-11 (11738290_x_at) / Fold change /veh KRTAP10-11 (11738290_x_at) / RFU MYO3A (11730013_a_at) / Fold change /veh MYO3A (11730013_a_at) / RFU EBF3 (11725865_a_at) / Fold change /veh EBF3 (11725865_a_at) / RFU CAMK2N1 (11719241_x_at) / Fold change /veh CAMK2N1 (11719241_x_at) / RFU C5orf56 (11738088_a_at) / Fold change /veh C5orf56 (11738088_a_at) / RFU OLFML3 (11715873_a_at) / Fold change /veh OLFML3 (11715873_a_at) / RFU LOC100653217 /// NTM (11731650_a_at) / Fold change /veh LOC100653217 /// NTM (11731650_a_at) / RFU MAPK11 (11762145_a_at) / Fold change /veh MAPK11 (11762145_a_at) / RFU FIZ1 (11724087_x_at) / Fold change /veh FIZ1 (11724087_x_at) / RFU OASL (11726364_x_at) / Fold change /veh OASL (11726364_x_at) / RFU SOX15 (11748057_x_at) / Fold change /veh SOX15 (11748057_x_at) / RFU CD79A (11719716_a_at) / Fold change /veh CD79A (11719716_a_at) / RFU HIST1H1D (11736915_at) / Fold change /veh HIST1H1D (11736915_at) / RFU CASKIN2 (11723855_a_at) / Fold change /veh CASKIN2 (11723855_a_at) / RFU LOC730098 (11760151_x_at) / Fold change /veh LOC730098 (11760151_x_at) / RFU OR4N2 (11742367_at) / Fold change /veh OR4N2 (11742367_at) / RFU PRRT2 (11749266_a_at) / Fold change /veh PRRT2 (11749266_a_at) / RFU SNX32 (11753110_a_at) / Fold change /veh SNX32 (11753110_a_at) / RFU CDHR5 (11726645_a_at) / Fold change /veh CDHR5 (11726645_a_at) / RFU RCAN1 (11760418_a_at) / Fold change /veh RCAN1 (11760418_a_at) / RFU FAM167A (11723789_a_at) / Fold change /veh FAM167A (11723789_a_at) / RFU FAM26E (11764081_at) / Fold change /veh FAM26E (11764081_at) / RFU ISYNA1 (11749810_s_at) / Fold change /veh ISYNA1 (11749810_s_at) / RFU ACY1 (11761880_at) / Fold change /veh ACY1 (11761880_at) / RFU 11764098_at / Fold change /veh 11764098_at / RFU SAMD14 (11745864_x_at) / Fold change /veh SAMD14 (11745864_x_at) / RFU NPB (11741838_a_at) / Fold change /veh NPB (11741838_a_at) / RFU TMPRSS6 (11731388_a_at) / Fold change /veh TMPRSS6 (11731388_a_at) / RFU KRTAP10-2 (11738614_at) / Fold change /veh KRTAP10-2 (11738614_at) / RFU ARHGAP8 /// PRR5-ARHGAP8 (11727945_x_at) / Fold change /veh ARHGAP8 /// PRR5-ARHGAP8 (11727945_x_at) / RFU KRTAP5-7 /// NADSYN1 (11734609_at) / Fold change /veh KRTAP5-7 /// NADSYN1 (11734609_at) / RFU RASL12 (11751679_a_at) / Fold change /veh RASL12 (11751679_a_at) / RFU CDKN2B (11736163_a_at) / Fold change /veh CDKN2B (11736163_a_at) / RFU PRF1 (11729649_at) / Fold change /veh PRF1 (11729649_at) / RFU, ZNF638 /// ZNF638-IT1 / Fold change vs veh, ZNF638 /// ZNF638-IT1 / RFU, PANK3 / Fold change vs veh, PANK3 / RFU, SH3YL1 / Fold change vs veh, SH3YL1 / RFU, ZEB2 / Fold change vs veh, ZEB2 / RFU, NRIP1 / Fold change vs veh, NRIP1 / RFU, PTTG1IP / Fold change vs veh, PTTG1IP / RFU, CAPN2 / Fold change vs veh, CAPN2 / RFU, MED14 / Fold change vs veh, MED14 / RFU, SNORA58 / Fold change vs veh, SNORA58 / RFU, C1orf63 / Fold change vs veh, C1orf63 / RFU, LRRFIP1 / Fold change vs veh, LRRFIP1 / RFU, NDUFAF7 / Fold change vs veh, NDUFAF7 / RFU, SLC12A2 / Fold change vs veh, SLC12A2 / RFU, IBTK / Fold change vs veh, IBTK / RFU, ESF1 / Fold change vs veh, ESF1 / Fold change vs veh, TMEM50B / RFU, TAOK1 / Fold change vs veh, TAOK1 / RFU, ACBD3 / Fold change vs veh, ACBD3 / RFU, TMA16 / Fold change vs veh, TMA16 / RFU, RWDD3 / Fold change vs veh, RWDD3 / RFU, BCAT1 / Fold change vs veh, BCAT1 / RFU, EDEM3 / Fold change vs veh, EDEM3 / RFU, TMEM33 / Fold change vs veh, TMEM33 / RFU, WDR75 / Fold change vs veh, WDR75 / RFU, AHCTF1 / Fold change vs veh, AHCTF1 / RFU, TFRC / Fold change vs veh, TFRC / RFU, ZDHHC17 / Fold change vs veh, ZDHHC17 / RFU, NOM1 / Fold change vs veh, NOM1 / RFU, ARL8B / Fold change vs veh, ARL8B / RFU, ZBTB11 / Fold change vs veh, ZBTB11 / RFU, TAMM41 / Fold change vs veh, TAMM41 / RFU, KIAA1704 /// LOC100996395 / Fold change vs veh, KIAA1704 /// LOC100996395 / RFU, ING1 / Fold change vs veh, ING1 / RFU, TRMT61B / Fold change vs veh, TRMT61B / RFU, FUBP3 / Fold change vs veh, FUBP3 / RFU, TP53 / Fold change vs veh, TP53 / RFU, TNKS2 / Fold change vs veh, TNKS2 / RFU, ZFP14 / Fold change vs veh, ZFP14 / RFU, ACTR2 / Fold change vs veh, ACTR2 / RFU, PPP3R1 / Fold change vs veh, PPP3R1 / RFU, PIK3R1 / Fold change vs veh, PIK3R1 / RFU, HNRNPA1 / Fold change vs veh, HNRNPA1 / RFU, RNF170 / Fold change vs veh, RNF170 / RFU, ZNF28 / Fold change vs veh, ZNF28 / RFU, RNGTT / Fold change vs veh, RNGTT / RFU, OGT / Fold change vs veh, OGT / RFU, BRD1 / Fold change vs veh, BRD1 / RFU, MARS / Fold change vs veh, MARS / RFU, ZNF655 / Fold change vs veh, ZNF655 / RFU, FAHD1 / Fold change vs veh, FAHD1 / RFU, BDP1 / Fold change vs veh, BDP1 / RFU, LRRCC1 / Fold change vs veh, LRRCC1 / RFU, ARID1A / Fold change vs veh, ARID1A / RFU, ZNF146 / Fold change vs veh, ZNF146 / RFU, ZNF330 / Fold change vs veh, ZNF330 / RFU, GPN3 / Fold change vs veh, GPN3 / RFU, C9orf123 / Fold change vs veh, C9orf123 / RFU, N4BP2L2 / Fold change vs veh, N4BP2L2 / RFU, ARFIP1 / Fold change vs veh, ARFIP1 / RFU, FAM179B / Fold change vs veh, FAM179B / RFU, BCL10 / Fold change vs veh, BCL10 / RFU, UHRF1BP1L / Fold change vs veh, UHRF1BP1L / RFU, BET1 / Fold change vs veh, BET1 / RFU, CNOT2 / Fold change vs veh, CNOT2 / RFU, ZNF268 / Fold change vs veh, ZNF268 / Fold change vs veh, ZNF507 / RFU, DGCR2 / Fold change vs veh, DGCR2 / RFU, WDSUB1 / Fold change vs veh, WDSUB1 / Fold change vs veh, HSP90B1 /// MIR3652 / RFU, ADSS / Fold change vs veh, ADSS / RFU, GK / Fold change vs veh, GK / RFU, ZNF148 / Fold change vs veh, ZNF148 / RFU, TAF9 / Fold change vs veh, TAF9 / RFU, SLC1A5 / Fold change vs veh, SLC1A5 / RFU, SLMO2 / Fold change vs veh, SLMO2 / RFU, ABCC4 / Fold change vs veh, ABCC4 / RFU, LOC101060439 /// RAP1B / Fold change vs veh, LOC101060439 /// RAP1B / RFU, RFX7 / Fold change vs veh, RFX7 / RFU, GTPBP10 / Fold change vs veh, GTPBP10 / RFU, CNEP1R1 / Fold change vs veh, CNEP1R1 / RFU, BIVM-ERCC5 /// ERCC5 / Fold change vs veh, BIVM-ERCC5 /// ERCC5 / RFU, ILF3 / Fold change vs veh, ILF3 / RFU 11762660_at / Fold change /veh 11762660_at / RFU VCAN (11757783_s_at) / Fold change /veh VCAN (11757783_s_at) / RFU DDX43 (11728927_at) / Fold change /veh DDX43 (11728927_at) / RFU KRT8 (11758188_x_at) / Fold change /veh KRT8 (11758188_x_at) / RFU NKD1 (11759106_at) / Fold change /veh NKD1 (11759106_at) / RFU SRD5A1 (11742802_a_at) / Fold change /veh SRD5A1 (11742802_a_at) / RFU TPSAB1 /// TPSB2 (11721975_s_at) / Fold change /veh TPSAB1 /// TPSB2 (11721975_s_at) / RFU GSTM3 (11746129_a_at) / Fold change /veh GSTM3 (11746129_a_at) / RFU IL23R (11737362_x_at) / Fold change /veh IL23R (11737362_x_at) / RFU TMEM51 (11727254_a_at) / Fold change /veh TMEM51 (11727254_a_at) / RFU PIWIL2 (11732686_x_at) / Fold change /veh PIWIL2 (11732686_x_at) / RFU ORM1 (11744905_x_at) / Fold change /veh ORM1 (11744905_x_at) / RFU CCDC152 (11743942_at) / Fold change /veh CCDC152 (11743942_at) / RFU ECM1 (11717891_a_at) / Fold change /veh ECM1 (11717891_a_at) / RFU IL23R (11748794_a_at) / Fold change /veh IL23R (11748794_a_at) / RFU TNFAIP8L3 (11732012_x_at) / Fold change /veh TNFAIP8L3 (11732012_x_at) / RFU MBOAT4 (11741988_at) / Fold change /veh MBOAT4 (11741988_at) / RFU 11764193_at / Fold change /veh 11764193_at / RFU TMEM53 (11763286_at) / Fold change /veh TMEM53 (11763286_at) / RFU MAGEB2 (11727129_at) / Fold change /veh MAGEB2 (11727129_at) / RFU TMEM200A (11744735_a_at) / Fold change /veh TMEM200A (11744735_a_at) / RFU CCDC152 (11751479_a_at) / Fold change /veh CCDC152 (11751479_a_at) / RFU FAM211A (11726209_a_at) / Fold change /veh FAM211A (11726209_a_at) / RFU RGS16 (11746705_a_at) / Fold change /veh RGS16 (11746705_a_at) / RFU VCAN (11755009_s_at) / Fold change /veh VCAN (11755009_s_at) / RFU RHOB (11743442_s_at) / Fold change /veh RHOB (11743442_s_at) / RFU RGS16 (11720943_a_at) / Fold change /veh RGS16 (11720943_a_at) / RFU RGS16 (11720944_at) / Fold change /veh RGS16 (11720944_at) / RFU, VPS4B / Fold change vs veh, VPS4B / RFU, CREB1 / Fold change vs veh, CREB1 / RFU, DNAJC13 / Fold change vs veh, DNAJC13 / RFU, GNAQ / Fold change vs veh, GNAQ / RFU, CDK5R1 / Fold change vs veh, CDK5R1 / RFU, ZRANB3 / Fold change vs veh, ZRANB3 / RFU, CUL4A / Fold change vs veh, CUL4A / RFU, CCNY / Fold change vs veh, CCNY / RFU, UFL1 / Fold change vs veh, UFL1 / RFU, COG3 / Fold change vs veh, COG3 / RFU, DIAPH2 / Fold change vs veh, DIAPH2 / RFU, SKA2 / Fold change vs veh, SKA2 / RFU, AFF3 / Fold change vs veh, AFF3 / RFU, LMF1 / Fold change vs veh, LMF1 / RFU, IPO11 / Fold change vs veh, IPO11 / RFU, DFFB / Fold change vs veh, DFFB / RFU, FOXP1 / Fold change vs veh, FOXP1 / RFU, CARD8 / Fold change vs veh, CARD8 / RFU, STRN3 / Fold change vs veh, STRN3 / RFU, ADK / Fold change vs veh, ADK / RFU, RASSF2 / Fold change vs veh, RASSF2 / RFU, WIPF1 / Fold change vs veh, WIPF1 / RFU, LARP1B / Fold change vs veh, LARP1B / RFU, RASA1 / Fold change vs veh, RASA1 / RFU, RB1 / Fold change vs veh, RB1 / RFU, PPFIA1 / Fold change vs veh, PPFIA1 / RFU, MAT2A / Fold change vs veh, MAT2A / RFU, CCT5 / Fold change vs veh, CCT5 / RFU, WDR92 / Fold change vs veh, WDR92 / RFU, CUX1 / Fold change vs veh, CUX1 / RFU, TTC7A / Fold change vs veh, TTC7A / RFU, TMEM135 / Fold change vs veh, TMEM135 / RFU, DEPTOR / Fold change vs veh, DEPTOR / RFU, CPM / Fold change vs veh, CPM / RFU, DNAJB6 / Fold change vs veh, DNAJB6 / RFU, CACNA2D3 / Fold change vs veh, CACNA2D3 / RFU, DTX4 / Fold change vs veh, DTX4 / RFU, TFCP2 / Fold change vs veh, TFCP2 / RFU, GMCL1 /// GMCL1P1 / Fold change vs veh, GMCL1 /// GMCL1P1 / RFU, AEBP2 / Fold change vs veh, AEBP2 / RFU, SNHG1 /// SNORD22 /// SNORD25 /// SNORD26 /// SNORD27 /// SNORD28 /// SNORD29 /// SNORD31 / Fold change vs veh, SNHG1 /// SNORD22 /// SNORD25 /// SNORD26 /// SNORD27 /// SNORD28 /// SNORD29 /// SNORD31 / Fold change (Aza/veh), C12orf56 (ProbeSet 11735607_a_at) / Fold change (ACY-1035/veh), C12orf56 (ProbeSet 11735607_a_at) / Fold change (Aza/veh), FGFR1OP (ProbeSet 11751329_s_at) / Fold change (ACY-1035/veh), FGFR1OP (ProbeSet 11751329_s_at) / Fold change (Aza/veh), VPS36 (ProbeSet 11739960_a_at) / Fold change (ACY-1035/veh), VPS36 (ProbeSet 11739960_a_at) / RFU SYPL1 (11715823_x_at) / Fold change /veh SYPL1 (11715823_x_at) / RFU IGFBP7 (11715501_s_at) / Fold change /veh IGFBP7 (11715501_s_at) / RFU REEP3 (11722064_at) / Fold change /veh REEP3 (11722064_at) / RFU IGLL1 (11728026_x_at) / Fold change /veh IGLL1 (11728026_x_at): dose or concentration left out as unconfirmed
Details: ProbeSet 11741311_a_at; LIST B

## Nc1ccc(-c2cccs2)cc1NC(=O)c1ccc2c(c1)cc(C1CC1)n2CCN1CCOCC1 [ACY-1035]
  RFU, ZNF655: 32.95 RFU
